From ChEMBL document CHEMBL6127088, “Novel 2-aminothiazole analogues both as polymyxin E synergist and antimicrobial agent against multidrug-resistant Gram-positive bacteria” (2024)
Converted amounts (≈) assume the structure as drawn.

Tests used:
Format in all cases: functional
[1] = tested on: Enterococcus faecalis; test: Antimicrobial activity against vancomycin-resistant Enterococcus faecalis ATCC 51299 assessed as minimum inhibitory concentration incubated for 18 hrs by broth microdilution method
[2] = tested on: Acinetobacter baumannii; test: Synergistic antimicrobial activity against Acinetobacter baumannii ATCC 19606 assessed as fractional inhibitory concentration index in presence of polymyxin E incubated for 18 to 20 hrs by chequerboard assay; details: time 18-20 hrs
[3] = tested on: Acinetobacter baumannii; test: Antimicrobial activity against Acinetobacter baumannii ATCC 19606 incubated for 18 hrs by broth microdilution method
[4] = tested on: Bacillus subtilis; test: Antimicrobial activity against Bacillus subtilis ATCC 20678 incubated for 18 hrs by broth microdilution method
[5] = tested on: Staphylococcus aureus; test: Antimicrobial activity against methicillin/ofloxacin-resistant Staphylococcus aureus ATCC 43300 assessed as minimum inhibitory concentration incubated for 18 hrs by broth microdilution method

Structure (SMILES) | MIC [1] [µg/mL] | fractional inhibitory concentration index (FICI) [2] | MIC [3] [µg/mL] | MIC [4] [µg/mL] | MIC [5] [µg/mL]
Fc1cc(Nc2nc(C3CC3)cs2)cc(C(F)(F)F)c1 | 8 (≈ 26.5 µM) | 0.187 | > 256 | 16 (≈ 52.9 µM) | 32 (≈ 106 µM)
Fc1ccc(-c2csc(Nc3ccc(Cl)c(C(F)(F)F)c3)n2)c(F)c1 | 2 (≈ 5.12 µM) | 0.094 | > 256 | 1 (≈ 2.56 µM) | 1 (≈ 2.56 µM)
Fc1ccc(-c2csc(Nc3cccc(C(F)(F)F)c3)n2)c(F)c1 | 2 (≈ 5.61 µM) | 0.094 | > 256 | 2 (≈ 5.61 µM) | 4 (≈ 11.2 µM)
Fc1cc(Nc2nc(-c3ccco3)cs2)cc(C(F)(F)F)c1 | 8 (≈ 24.4 µM) | 0.187 | > 256 | 4 (≈ 12.2 µM) | 8 (≈ 24.4 µM)
C/C(=N\NC(=N)N)c1csc(Nc2cc(F)cc(C(F)(F)F)c2)n1 | 8 (≈ 22.2 µM) | 0.75 | > 256 | 4 (≈ 11.1 µM) | 8 (≈ 22.2 µM)
Fc1cc(Nc2nc(-c3ccc(F)cc3F)cs2)cc(C(F)(F)F)c1 | 2 (≈ 5.34 µM) | 0.062 | > 256 | 2 (≈ 5.34 µM) | 2 (≈ 5.34 µM)
Fc1cc(Nc2nc(-c3cccs3)cs2)cc(C(F)(F)F)c1 | 8 (≈ 23.2 µM) | 0.187 | > 256 | 4 (≈ 11.6 µM) | 64 (≈ 186 µM)
CCOc1ccc(Nc2nc(-c3ccc(F)cc3F)cs2)cc1C(F)(F)F | 4 (≈ 9.99 µM) | 0.094 | > 256 | 4 (≈ 9.99 µM) | 8 (≈ 20 µM)
Fc1ccc(-c2csc(Nc3cc(Cl)cc(C(F)(F)F)c3)n2)c(F)c1 | 2 (≈ 5.12 µM) | 0.156 | > 256 | 4 (≈ 10.2 µM) | 4 (≈ 10.2 µM)
Oc1cc(Nc2nc(-c3ccc(F)cc3F)cs2)cc(C(F)(F)F)c1 | 256 (≈ 688 µM) | 0.25 | > 256 | 0.5 (≈ 1.34 µM) | 1 (≈ 2.69 µM)
O=C(Nc1ccccn1)c1csc(Nc2cc(F)cc(C(F)(F)F)c2)n1 | 256 (≈ 670 µM) | 0.281 | 64 (≈ 167 µM) | 256 (≈ 670 µM) | 256 (≈ 670 µM)
Fc1cc(Nc2nc(-c3cccnc3)cs2)cc(C(F)(F)F)c1 | 256 (≈ 754 µM) | 1.031 | 128 (≈ 377 µM) | 256 (≈ 754 µM) | 64 (≈ 189 µM)
Fc1ccc(-c2csc(Nc3cc(C(F)(F)F)cc(C(F)(F)F)c3)n2)c(F)c1 | 4 (≈ 9.43 µM) | 0.094 | > 256 | 4 (≈ 9.43 µM) | 4 (≈ 9.43 µM)
Fc1cc(Nc2nc(-c3cc4ccccc4o3)cs2)cc(C(F)(F)F)c1 | 2 (≈ 5.29 µM) | 0.187 | > 256 | 2 (≈ 5.29 µM) | 1 (≈ 2.64 µM)
Fc1ccc(-c2csc(Nc3ccccn3)n2)c(F)c1 | 256 (≈ 885 µM) | 1.031 | 64 (≈ 221 µM) | 256 (≈ 885 µM) | 256 (≈ 885 µM)
Fc1ccc(-c2csc(Nc3ccc(C(F)(F)F)cc3F)n2)c(F)c1 | 256 (≈ 684 µM) | 1.031 | > 256 | 256 (≈ 684 µM) | 256 (≈ 684 µM)
C/C(=N\Nc1ccccc1)c1csc(Nc2cc(F)cc(C(F)(F)F)c2)n1 | 16 (≈ 40.6 µM) | 0.375 | 64 (≈ 162 µM) | 16 (≈ 40.6 µM) | 16 (≈ 40.6 µM)
Oc1ccc(Nc2nc(-c3ccc(F)cc3F)cs2)cc1C(F)(F)F | 2 (≈ 5.37 µM) | 0.187 | > 256 | 2 (≈ 5.37 µM) | 4 (≈ 10.7 µM)

Structure (SMILES) | MIC [1] [µg/mL] | fractional inhibitory concentration index (FICI) [2] | MIC [3] [µg/mL] | MIC [4] [µg/mL] | MIC [5] [µg/mL]
C/C(=N\Nc1ccc(Cl)nn1)c1csc(Nc2cc(F)cc(C(F)(F)F)c2)n1 | 256 (≈ 594 µM) | 0.75 | > 256 | 256 (≈ 594 µM) | 64 (≈ 149 µM)
Fc1ccc(-c2csc(Nc3c(Cl)cc(C(F)(F)F)cc3Cl)n2)c(F)c1 | 256 (≈ 602 µM) | 1.031 | > 256 | 256 (≈ 602 µM) | 256 (≈ 602 µM)
C/C(=N\Nc1ccc(C(=O)O)cn1)c1csc(Nc2cc(F)cc(C(F)(F)F)c2)n1 | 128 (≈ 291 µM) | 1.031 | > 256 | 64 (≈ 146 µM) | 64 (≈ 146 µM)
C/C(=N\Nc1cnccn1)c1csc(Nc2cc(F)cc(C(F)(F)F)c2)n1 | 128 (≈ 323 µM) | 0.75 | 128 (≈ 323 µM) | 256 (≈ 646 µM) | 64 (≈ 161 µM)
Fc1cc(Nc2nc(C3CCOCC3)cs2)cc(C(F)(F)F)c1 | 128 (≈ 370 µM) | 1.031 | > 256 | 64 (≈ 185 µM) | 64 (≈ 185 µM)
Fc1ccc(-c2csc(Nc3ccccc3C(F)(F)F)n2)c(F)c1 | 4 (≈ 11.2 µM) | 0.156 | > 256 | 8 (≈ 22.5 µM) | 8 (≈ 22.5 µM)
Fc1ccc(-c2csc(Nc3ccc(C(F)(F)F)cc3Cl)n2)c(F)c1 | 256 (≈ 655 µM) | 1.031 | > 256 | 256 (≈ 655 µM) | 256 (≈ 655 µM)
C/C(=N\Nc1ncccc1Cl)c1csc(Nc2cc(F)cc(C(F)(F)F)c2)n1 | 4 (≈ 9.31 µM) | 0.094 | 128 (≈ 298 µM) | 1 (≈ 2.33 µM) | 2 (≈ 4.65 µM)
COc1cc(Nc2nc(-c3ccc(F)cc3F)cs2)cc(C(F)(F)F)c1 | 256 (≈ 663 µM) | 0.187 | > 128 | 2 (≈ 5.18 µM) | 256 (≈ 663 µM)
C/C(=N\Nc1cc(O)ncn1)c1csc(Nc2cc(F)cc(C(F)(F)F)c2)n1 | 256 (≈ 621 µM) | 0.562 | > 256 | 256 (≈ 621 µM) | 128 (≈ 310 µM)
Cn1cc(-c2csc(Nc3cc(F)cc(C(F)(F)F)c3)n2)cn1 | 256 (≈ 748 µM) | 0.281 | > 256 | 256 (≈ 748 µM) | 256 (≈ 748 µM)
CS(=O)(=O)c1ccc(Nc2nc(-c3ccc(F)cc3F)cs2)cc1 | 256 (≈ 699 µM) | 1.031 | > 256 | 256 (≈ 699 µM) | 256 (≈ 699 µM)
Cc1ccc(C(F)(F)F)cc1Nc1nc(-c2ccc(F)cc2F)cs1 | 256 (≈ 691 µM) | 0.093 | > 256 | 2 (≈ 5.4 µM) | 256 (≈ 691 µM)
C/C(=N\NC1=NCCN1)c1csc(Nc2cc(F)cc(C(F)(F)F)c2)n1 | 16 (≈ 41.4 µM) | 0.75 | > 256 | 8 (≈ 20.7 µM) | 16 (≈ 41.4 µM)
Cc1cc(C(F)(F)F)ccc1Nc1nc(-c2ccc(F)cc2F)cs1 | 256 (≈ 691 µM) | 0.094 | > 256 | 4 (≈ 10.8 µM) | 256 (≈ 691 µM)
Fc1ccc(-c2csc(Nc3ccncc3)n2)c(F)c1 | 32 (≈ 111 µM) | 1.031 | 128 (≈ 442 µM) | 4 (≈ 13.8 µM) | 4 (≈ 13.8 µM)
COc1ccc(Nc2nc(-c3ccc(F)cc3F)cs2)cc1C(F)(F)F | 8 (≈ 20.7 µM) | 0.094 | > 256 | 4 (≈ 10.4 µM) | 8 (≈ 20.7 µM)
